Values joined by “and” are separate entries in the source; they are usually repeats but may differ in a detail not shown here. Equal values may be shown once. Toxic doses and inconclusive results are not listed.

The subject of the assay is L1210 leukemia ip in BDF1 mice, survival T/C. Kind of assay: NCI In Vivo Anticancer Drug Screen. Data for tumor model L1210 Leukemia (intraperitoneal) in B6D2F1 (BDF1) mice. Conditions: endpoint: mean survival time, higher = longer survival. In a few lines:
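Transplantable tumor model; survival measured in treated vs vehicle control mice. Value = treated/control.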

Setting [1] is: dose: 100.0 mg/kg/injection, schedule: Q01DX001 (ip), vehicle: carboxymethylcellulose (CMC).
[2] abbreviates: dose: 200.0 mg/kg/injection, schedule: Q01DX001 (ip), vehicle: carboxymethylcellulose (CMC).
[3] abbreviates: dose: 50.0 mg/kg/injection, schedule: Q01DX001 (ip), vehicle: carboxymethylcellulose (CMC).
Setting [4] is: dose: 100.0 mg/kg/injection, schedule: Q04DX003 (ip), vehicle: Klucel (hydroxypropylcellulose) (HPC).
Where [5] appears, read: dose: 200.0 mg/kg/injection, schedule: Q04DX003 (ip), vehicle: Klucel (hydroxypropylcellulose) (HPC).
Setting [6] is: dose: 100.0 mg/kg/injection, schedule: Q01DX001 (ip), vehicle: saline.
[7] abbreviates: dose: 200.0 mg/kg/injection, schedule: Q01DX001 (ip), vehicle: saline.
Where [8] appears, read: dose: 400.0 mg/kg/injection, schedule: Q01DX001 (ip), vehicle: saline.
The mark [9] stands for this setting: dose: 100.0 mg/kg/injection, schedule: Q01DX009 (ip), vehicle: Klucel (hydroxypropylcellulose) (HPC).
[10] abbreviates: dose: 200.0 mg/kg/injection, schedule: Q01DX009 (ip), vehicle: Klucel (hydroxypropylcellulose) (HPC).

For `COc1ccc(NC(=O)Oc2ccccn2)cc1`, the T/C by setting is: (dose: 25.0 mg/kg/injection, schedule: Q01DX009 (ip), vehicle: carboxymethylcellulose (CMC)) 92 % of control and 100 % of control; (dose: 50.0 mg/kg/injection, schedule: Q01DX009 (ip), vehicle: carboxymethylcellulose (CMC)) 93 % of control and 103 % of control; under setting [1], 97 % of control; (dose: 100.0 mg/kg/injection, schedule: Q04DX003 (ip), vehicle: carboxymethylcellulose (CMC)) 93 % of control and 106 % of control; under setting [2], 101 % of control; (dose: 200.0 mg/kg/injection, schedule: Q04DX003 (ip), vehicle: carboxymethylcellulose (CMC)) 97 % of control and 113 % of control. The T/C runs as follows: (dose: 400.0 mg/kg/injection, schedule: Q01DX001 (ip), vehicle: carboxymethylcellulose (CMC)) 113 % of control; (dose: 400.0 mg/kg/injection, schedule: Q04DX003 (ip), vehicle: carboxymethylcellulose (CMC)) 97 % of control and 108 % of control.

As for `O=C(COc1c(Cl)cc(Cl)cc1Cl)NCc1ccc(Cl)cc1`, the T/C is, setting by setting: (dose: 100.0 mg/kg/injection, schedule: Q01DX009 (ip), vehicle: saline with Tween-80) 100 % of control; (dose: 200.0 mg/kg/injection, schedule: Q01DX009 (ip), vehicle: saline with Tween-80) 109 % of control; (dose: 400.0 mg/kg/injection, schedule: Q01DX009 (ip), vehicle: saline with Tween-80) 101 % of control.

In the case of `CC(=S)N1CCCCC1`, the T/C under setting [3] is 100 % of control.

Consider `CC[C@H](c1ccc(O)cc1)[C@@H](CC)c1ccc(O)cc1`, for which the T/C by setting is: (dose: 62.5 mg/kg/injection, schedule: Q01DX010 (sc), vehicle: steriod suspending solution) 104 % of control; (dose: 125.0 mg/kg/injection, schedule: Q01DX010 (sc), vehicle: steriod suspending solution) 95 % of control; (dose: 250.0 mg/kg/injection, schedule: Q01DX010 (sc), vehicle: steriod suspending solution) 104 % of control.

`Cc1cccc(NC(=O)/C=N/O)c1C`: the T/C is 98 % of control under setting [4] and 98 % of control under setting [5].

`CN=C(N)c1ccc(S(=O)(=O)N=C(N)N)cc1`: the T/C is 96 % of control under setting [6], 98 % of control under setting [7] and 100 % of control under setting [8].

In the case of `Cc1cccc(Cl)c1NC(=S)Nc1cccc(C(F)(F)F)c1`, the T/C is, setting by setting: under setting [9], 102 % of control; under setting [10], 102 % of control; (dose: 400.0 mg/kg/injection, schedule: Q01DX009 (ip), vehicle: Klucel (hydroxypropylcellulose) (HPC)) 96 % of control.

Regarding `CN(C)C(C)(C)CCCNc1ccnc2cc(Cl)ccc12`, the T/C reads like this: (dose: 75.0 mg/kg/injection, schedule: Q01DX001 (ip), vehicle: carboxymethylcellulose (CMC)) 100 % of control; (dose: 150.0 mg/kg/injection, schedule: Q01DX001 (ip), vehicle: carboxymethylcellulose (CMC)) 100 % of control.

Regarding `COc1cc(Cc2nccc3ccccc23)cc([N+](=O)[O-])c1OC`, the T/C (dose: 50.0 mg/kg/injection, schedule: Q04DX002 (ip), vehicle: saline with Tween-80) was 97 % of control; the T/C (dose: 100.0 mg/kg/injection, schedule: Q04DX002 (ip), vehicle: saline with Tween-80) was 93 % of control; the T/C (dose: 200.0 mg/kg/injection, schedule: Q04DX002 (ip), vehicle: saline with Tween-80) was 90 % of control; the T/C (dose: 400.0 mg/kg/injection, schedule: Q04DX002 (ip), vehicle: saline with Tween-80) was 87 % of control.

Consider `CC(=O)Nc1ccc(Br)cc1`, for which the T/C reads like this: under setting [3], 92 % of control; under setting [1], 93 % of control; under setting [9], 103 % of control; under setting [4], 98 % of control; under setting [2], 93 % of control; under setting [10], 113 % of control. The T/C by setting is: under setting [5], 104 % of control; (dose: 400.0 mg/kg/injection, schedule: Q04DX003 (ip), vehicle: Klucel (hydroxypropylcellulose) (HPC)) 106 % of control.

Consider `CC(C)(CCCC(C)(C)[N+](=O)[O-])[N+](=O)[O-]`, for which the T/C (dose: 100.0 mg/kg/injection, schedule: Q01DX001 (ip), vehicle: saline with Tween-80) was 101 % of control; the T/C (dose: 200.0 mg/kg/injection, schedule: Q01DX001 (ip), vehicle: saline with Tween-80) was 94 % of control; the T/C (dose: 400.0 mg/kg/injection, schedule: Q01DX001 (ip), vehicle: saline with Tween-80) was 101 % of control.

For `O=C1NNCc2c1sc1ccccc21`, the T/C was 98 % of control under setting [6], 98 % of control under setting [7] and 102 % of control under setting [8].

In the case of `NC(=O)n1nccc1N`, the T/C runs as follows: (dose: 100.0 mg/kg/injection, schedule: Q01DX009 (ip), vehicle: saline) 100 % of control; (dose: 100.0 mg/kg/injection, schedule: Q04DX003 (ip), vehicle: saline) 94 % of control; (dose: 200.0 mg/kg/injection, schedule: Q01DX009 (ip), vehicle: saline) 103 % of control; (dose: 200.0 mg/kg/injection, schedule: Q04DX003 (ip), vehicle: saline) 104 % of control; (dose: 400.0 mg/kg/injection, schedule: Q01DX009 (ip), vehicle: saline) 105 % of control; (dose: 400.0 mg/kg/injection, schedule: Q04DX003 (ip), vehicle: saline) 91 % of control.

For the compound `CC1(O)c2ccccc2-c2c1n([O-])c1ccccc1[n+]2=O` (stereo unspecified), the T/C runs as follows: (dose: 100.0 mg/kg/injection, schedule: Q04DX003 (ip), vehicle: saline sonified) 111 % of control; (dose: 200.0 mg/kg/injection, schedule: Q04DX003 (ip), vehicle: saline sonified) 100 % of control; (dose: 400.0 mg/kg/injection, schedule: Q04DX003 (ip), vehicle: saline sonified) 89 % of control.

Turning to `COc1cccc2c1C(=O)c1c(O)c3c(c(O)c1C2=O)C[C@@](O)(C(=O)COC(=O)Cc1ccccc1)C[C@@H]3OC1CC(N)C(O)C(C)O1` (stereo partly specified), the T/C reads like this: (dose: 1.3 mg/kg/injection, schedule: Q01DX009 (ip), vehicle: saline) 152 % of control; (dose: 2.0 mg/kg/injection, schedule: Q01DX009 (ip), vehicle: saline) 167 % of control; (dose: 3.0 mg/kg/injection, schedule: Q01DX009 (ip), vehicle: saline) 173 % of control; (dose: 6.8 mg/kg/injection, schedule: Q01DX009 (ip), vehicle: saline with Tween-80) 104 % of control.
